We go through two compounds from patent USRE43712E1, “Methods for assaying for antidepressant therapy markers” (The Board of Trustees of the Uniersity of Illinois, priority 2000, dated 2012).

Test [1] relates to Gsα. The test is described as follows: Detergent extraction of Gsα from rat synaptic membrane after chronic antidepressant treatment. The following applies: for GsαL in the Triton X-100 extract versus control / GsαL in the Triton X-114 extract versus control: rat synaptic membrane, 21 days treatment. Type of test: in vivo. Here is the method:
C6-2B cells (between passages 20 and 40) were grown in 175-cm^2 flasks in Dulbecco's modified Eagle medium, 4.5 g of glucose/L, 10% bovine serum, in a 10% CO2 atmosphere, at 37° C. for 3 days after splitting. […] Male Sprague-Dawley rats weighing 150-200 g were fed ad libitum and maintained in a 12-h light/dark cycle. […] 36:803-838, 1989]. […] Rat cerebral cortex membranes were prepared according to the method of Rasenick et al. [Nature, 294:560-562; 1981].
Membrane proteins were extracted sequentially from C6-2B or rat synaptic membranes as described [Yan et al., J. Neurochem., 66:1489-1495; 1996]. These membranes were stirred on ice in HEPES (15 mM, pH 7.4) containing 1% Triton X-100 for 60 min followed by centrifugation at 100,000 g for 60 min at 4° C. The supernatant was reserved (Triton X-100 extract), and the resulting pellet was resuspended in Tris (15 mM, pH 7.4) containing 1.4% Triton X-114 and 150 mM NaCl. The solution was stirred for 60 min at 4° C. and centrifuged for 30 min at 100,000 g in the cold. The supernatant was saved (Triton X-114 extract). These supernatants and remaining pellet (remainder) were subjected to sodium dodecyl sulfate (SDS)-polyacrylamide gel electophoresis (PAGE) using 10% gels. All of the extraction buffers contained 1 mM PMSF and 1 mM EGTA.
Rat cortex membrane, C6-2B cell membranes, or Triton extracts of each membrane preparation were subjected to SDS-PAGE followed by electrotransfer to polyvinylidene difluoride (PVDF) membrane. The PVDF membrane was incubated with a phosphate-buffered saline/Tween 20 Buffer (140 mM NaCl, […]. 0.1% Tween 20, pH 7.4) and 3% bovine serum albumin. The membrane was then incubated with polyclonal rabbit antisera against the various G protein subunits [RM (Gsα) or 116 (Gi1, Gi2, Gi3α)] at a 1:25,000 (RM) or 1:5,000 (116) dilution (see below for source of antibodies). […] Immunoreactivity was detected with an enhanced chemiluminescence (ECL) western blot detection system (Amersham) in accord with the manufacturer's instructions. The developed autoradiographs were analyzed by densitometry.
Rats were treated with antidepressant via intraperitoneal injection once daily for 21 days, control animals received an equal number and volume of injection of saline. Cerebral cortices from each group were removed. Rat synaptic membrane-enriched fractions were prepared (see Example 1). The ratios of the percentage of Gsα extracted by the two detergents in the treatment versus control groups were compared and are set forth in Table 3 as percentage of control (i.e., each Triton X-100 extract was compared with the untreated Triton X-100 extract, the same was comparison was undertaken for Triton X-114 extracts as well as the remainder). The values shown are means±standard error of the mean of 4-6 experiments.

For test [2], the system named is Gsα. The test is described as follows: Cellular localization of Gsα in C6-2B cells, immunofluorescence laser scanning confocal microscopy. In kind it is cell-based. The conditions noted are these: for Cells displaying intense Gsα staining at the process tips (and processes): control 64%. How it is done:
C6-2B cells (between passages 30 and 50) were plated onto coverslips and allowed to attach overnight in Dulbecco's modified Eagle's medium. 4.5 g/l glucose, 10% bovine serum, and 100 μg/ml penicillin and streptomycin at 37° C. in a humidified 10% CO2 atmosphere. […] Therefore, the latter treatment paradigm was used in these experiments because it was easier to maintain the cell cultures for 3 days. […] The culture media and drug were changed daily. […] After the treatment duration, the cells were incubated in drug-free media for 45 to 60 minutes before fixation.
After treatment, cells were washed once with phosphate-buffered saline (PBS, […] NaCl, 2.6 mM KCl, 5.4 mM NaαPO4 7H2O, pH 7.4) and fixed with ice-cold methanol for 10 minutes. Cells were then washed three times with PBS followed by 2 h of blocking in 5% normal goat serum/0.2% fish skin gelatin in PBS. Primary antibody was added for 1.5 h, Gsα/RM1 (PerkinElmer Life Sciences, Boston, Mass.) 1:50 and Goα (Santa Cruz Biotechnology, Santa Cruz, Calif.) 2 μg/ml, followed by three washes with PBS. Oregon Green-labeled secondary antibody (Molecular Probes, Eugene, Oreg.) was added at a concentration of 8 μg/ml for 1 h followed by three PBS washes. The coverslips were mounted onto slides with Vectashield (Vector Laboratories. Burlingame, Calif.) containing diamidino-2-phenylindole as a mounting medium. Images were acquired using a Zeiss LSM510 laser-scanning confocal microscope (Carl Zeiss Inc., Thornwood, N.Y.). A single 488-nm beam from an argon/krypton laser was used for excitation of the Oregon Green. Differential interference contrast images were also acquired. Five experiments were performed and coverslips were examined. Approximately 2100 cells from control and desipramine-treated coverslips were counted by two investigators blind to the experimental conditions over the course of the five experiments.
The cellular distribution of Gsα was quantified in confocal imaged C6-2B cells using NIH-Image software (http://rsbinfonihpov/nih-image) as describe previously [Southwell et al., Cell Tissue Res., 292:37-45, 1998; Jenkinson et al., Br. J. Pharmacol., 126:131-136, 1999]. Images of 9×1 μm optical, planar sections taken from four randomly selected control and four randomly selected desipramine-treated cells were captured and the middle five sections from each cell were quantified. Total cellular Gsα fluorescence was measured by counting the number of pixels with intensity above threshold (determined by minimum intensity above background in this case 50 pixels). The areas of intensity were numbered and divided visually into those localized to the cell body and those localized to the processes and process tips. The total from each region was divided by the total cell pixel intensity and expressed as a percentage of the total. This was done for each section of each cell and the sections were averaged per cell to give an average percentage total per cell.
In a separate investigation, seven sets of 300 cells each from control group and desipramine-treated cells from five experiments were counted to determine the primary localization (processes and process tips or cell body) of Gsα within these cells. The majority of the cells stained positively for Gsα throughout the entire cell, but there was usually an enhancement in one of these regions. […] The counts are expressed as the ratio of process and process tip localization/cell body localization.
Studies were conducted to determine whether a shift in cellular localization of Gsα occurred in C6-2B cells subjected to antidepressants.
Twenty-one hundred cells from each group (control versus desipramine-treated) over a series of five experiments were examined to quantify the extent of the antidepressant effect. […] Abnormal cells or those not displaying processes were not included in the cell count. Cells (300-450) were counted per experiment and the ratio of category A cells to category B cells for each group is shown in FIG. 8. […]

[3] abbreviates: rat cerebral cortex synaptic membrane, 10 mg/kg i.p. once daily for 21 days, mean ± SEM of 4-6 experiments.
The mark [4] stands for this setting: 10 μM desipramine 3 days, individual cells D1-D4.

Several values for one entry are separate records, joined by “and”; a condition that tells them apart may be missing. Equal values may be shown once. Entries after “also recorded” stand apart in the source; their conditions may differ. Marks after values point to notes of the source that are not given here.

As for `CNCCCN1c2ccccc2CCc2ccccc21` [Desipramine, desipramine], in the test on Gsα [1] (setting [3]), the “GsαL in Triton X-100 extract, % of corresponding value in control group” value is on record as 128.2 ± 9.5^a %; the “GsαL in Triton X-114 extract, % of corresponding value in control group” value is 77.3 ± 8.8^a %; the “GsαS in Remainder, % of corresponding value in control group” value is recorded as 84.9 ± 25.7%; the “GsαS in Triton X-100 extract, % of corresponding value in control group” value is 146.4 ± 9.6^b %. In addition, the “GsαS in Triton X-114 extract, % of corresponding value in control group” value in the test on Gsα [1] (setting [3]) is 71.7 ± 6.8^a %. Further, in the test on Gsα [1], the “GsαL in the Triton X-100 extract versus control” value is reported as “significant increase” and the “GsαL in the Triton X-114 extract versus control” value is on record as “concomitant decrease”. Further, in the test with Gsα [2] (10 μM desipramine 3 days), the “Decrease in Gsα localization to the processes and process tips, control versus treated cells” value is listed as “three-fold decrease”. Besides, the “Percentage of Gsα immunofluorescence distribution, Processes, Average” value in the test with Gsα [2] (10 μM desipramine 3 days, average of four cells, control 12.0 ± 5.7) was 4.1 ± 4.7%. In the test with Gsα [2] (10 μM desipramine 3 days, average of four cells, control 12.0 ± 5.7, listed as desipramine), the “Percentage of Gsα immunofluorescence distribution, Processes, Average” value came out at 4%. Moreover, the “Percentage of Gsα immunofluorescence distribution, Cell Body, Average” value in the test with Gsα [2] (10 μM desipramine 3 days, average of four cells, control 88.0 ± 5.7) worked out at 95.9 ± 4.7%. In the test with Gsα [2] (setting [4]), the “Percentage of Gsα immunofluorescence distribution, Cell Body, single cells” value is 91.4% and 92.2% and 100.0% (2×); the “Percentage of Gsα immunofluorescence distribution, Processes, single cells” value was 8.6% and 7.8% and 0.0% (2×). Further, in the test on Gsα [2] (10 μM, 3 days), the “Gsα immunofluorescence in cell processes and process tips” value is “drastically reduced; also recorded: decrease in the cell processes and process tips”; the “Gsα in the cell body” value is recorded as “increase”; the “Cells displaying intense Gsα staining at the process tips (and processes)” value stood at 32%.

As to `CNCCC(Oc1ccc(C(F)(F)F)cc1)c1ccccc1` (centres unmarked) [Fluoxetine, fluoxetine], in the test with Gsα [1] (setting [3]), the “GsαL in Remainder, % of corresponding value in control group” value is reported as 53.8 ± 6.9^a %; the “GsαL in Triton X-100 extract, % of corresponding value in control group” value is on record as 118.1 ± 3.4^a %; the “GsαL in Triton X-114 extract, % of corresponding value in control group” value was 81.9 ± 4.5^a %; the “GsαS in Remainder, % of corresponding value in control group” value is 45.2 ± 8.4^a %. Besides, in the test with Gsα [1] (setting [3]), the “GsαS in Triton X-100 extract, % of corresponding value in control group” value was determined as 153.8 ± 39.9% and the “GsαS in Triton X-114 extract, % of corresponding value in control group” value was determined as 91.6 ± 6.3%. For the same compound, in the test with Gsα [1], the “GsαL in the Triton X-100 extract versus control” value is recorded as “significant increase” and the “GsαL in the Triton X-114 extract versus control” value is recorded as “concomitant decrease”. In addition, in the test with Gsα [2] (10 μM, 3 days), the “Gsα immunofluorescence in cell processes and process tips” value is “loss of staining in the processes and process tips; also recorded: drastic reduction”; the “Cells displaying intense Gsα staining at the process tips (and processes)” value worked out at 45%.
